Results from paper PMC10369073, “Production, identification, in silico analysis, and cytoprotection on H2O2-induced HUVECs of novel angiotensin-I-converting enzyme inhibitory peptides from Skipjack tuna roes” (Frontiers in Nutrition, 2023).

Legend:
[1] = test system: HUVECs; test: ET-1 secretion in HUVECs (assay kit); format: cell-based, human; conditions: control 55.37 ± 2.53 pg./mL
Experimental: (§1) HUVECs were cultured in DMEM supplemented with 100 µg/mL streptomycin, 10% FBS (v/v), and 100 U/mL penicillin at 37°C in a humidified 5% CO2 atmosphere for 24 h.
(§2) After treating with ACEi peptides (TRP3, TRP6, TRP9, or TRP12, respectively) for 24 h, NO and ET-1 contents were separately determined by employing human NO and ET-1 assay kit as per manufactures’ protocol ([18]).

[2] = test system: HUVECs; test: NO production in HUVECs (assay kit); format: cell-based, human; conditions: control 33.68 ± 0.96 μM
Experimental: as §1, §2

[3] = biological target: T1, ACE (Oryctolagus cuniculus, UniProt P12822); conditions: cited from earlier work; for IC50: read-out: ACEi IC50
T1 sequence (P12822 34-1310): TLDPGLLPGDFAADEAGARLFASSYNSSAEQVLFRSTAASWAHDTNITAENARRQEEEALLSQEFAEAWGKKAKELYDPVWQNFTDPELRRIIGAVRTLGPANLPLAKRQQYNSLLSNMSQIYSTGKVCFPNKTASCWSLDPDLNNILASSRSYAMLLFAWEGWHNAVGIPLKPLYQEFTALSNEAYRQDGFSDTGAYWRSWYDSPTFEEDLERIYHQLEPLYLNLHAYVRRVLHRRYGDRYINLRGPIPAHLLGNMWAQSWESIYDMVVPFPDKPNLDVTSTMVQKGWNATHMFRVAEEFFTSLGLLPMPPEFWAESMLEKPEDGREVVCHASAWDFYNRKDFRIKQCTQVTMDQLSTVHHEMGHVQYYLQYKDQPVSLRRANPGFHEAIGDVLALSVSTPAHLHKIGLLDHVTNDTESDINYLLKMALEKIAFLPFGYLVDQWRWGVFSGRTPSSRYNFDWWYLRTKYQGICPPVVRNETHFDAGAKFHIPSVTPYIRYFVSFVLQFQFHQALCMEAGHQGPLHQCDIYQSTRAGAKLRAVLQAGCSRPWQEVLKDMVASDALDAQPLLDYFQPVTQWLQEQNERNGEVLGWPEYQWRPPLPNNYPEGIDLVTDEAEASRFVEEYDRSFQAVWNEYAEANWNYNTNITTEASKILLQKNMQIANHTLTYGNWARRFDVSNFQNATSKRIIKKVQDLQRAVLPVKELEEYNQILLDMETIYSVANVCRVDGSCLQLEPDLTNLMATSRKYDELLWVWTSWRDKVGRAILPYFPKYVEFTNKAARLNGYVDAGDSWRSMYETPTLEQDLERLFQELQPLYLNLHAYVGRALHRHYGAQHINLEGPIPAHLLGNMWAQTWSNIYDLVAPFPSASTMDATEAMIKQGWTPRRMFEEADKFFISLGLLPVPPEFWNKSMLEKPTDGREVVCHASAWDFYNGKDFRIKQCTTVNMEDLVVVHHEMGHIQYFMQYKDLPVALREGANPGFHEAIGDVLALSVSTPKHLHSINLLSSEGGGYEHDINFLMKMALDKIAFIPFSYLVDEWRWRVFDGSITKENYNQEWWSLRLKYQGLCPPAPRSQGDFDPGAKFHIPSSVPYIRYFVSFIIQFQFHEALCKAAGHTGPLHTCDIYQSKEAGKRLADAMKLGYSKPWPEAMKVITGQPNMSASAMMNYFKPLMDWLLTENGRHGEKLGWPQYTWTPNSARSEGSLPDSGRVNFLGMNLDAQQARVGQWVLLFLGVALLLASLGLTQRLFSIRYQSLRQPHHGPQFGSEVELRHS
From the text: Moreover, the C- and N-terminal amino acids are believed to play a crucial function in the activity of ACEi peptides ([21]). Yu et al. ([56]) reported that C-terminus (such as Trp, Tyr, Pro, or Phe) and N-terminus (such as Pro, Phe, Trp, or Met) hydrophobic amino acid residues have positive effects on the ACEi ...

[4] = biological target: T1, ACE; conditions: cited from earlier work
From the text: Peptide size and amino acid sequence are two key factors affecting the ACEi ability of BPs ([17], [21]). Peptide size decides the affinity between BPs and ACE because big polypeptides cannot be accommodated in and access the narrow channel of ACE ([21]). For example, VPP and IPP can easily access and bind the Zn^2+ of ACE channel, but ALPMHIR has low binding scores with ACE because it uncomfortably accesses the narrow channel ([19]). In the experiment, TRP3, TRP6, TRP9, and TRP10 are tetrapeptides or pentapeptides, and small size increases their access to the active channel of ACE, and this ha ...

[5] = biological target: T2, angiotensin-I-converting enzyme (ACE) (UniProt P12822)
T2 sequence: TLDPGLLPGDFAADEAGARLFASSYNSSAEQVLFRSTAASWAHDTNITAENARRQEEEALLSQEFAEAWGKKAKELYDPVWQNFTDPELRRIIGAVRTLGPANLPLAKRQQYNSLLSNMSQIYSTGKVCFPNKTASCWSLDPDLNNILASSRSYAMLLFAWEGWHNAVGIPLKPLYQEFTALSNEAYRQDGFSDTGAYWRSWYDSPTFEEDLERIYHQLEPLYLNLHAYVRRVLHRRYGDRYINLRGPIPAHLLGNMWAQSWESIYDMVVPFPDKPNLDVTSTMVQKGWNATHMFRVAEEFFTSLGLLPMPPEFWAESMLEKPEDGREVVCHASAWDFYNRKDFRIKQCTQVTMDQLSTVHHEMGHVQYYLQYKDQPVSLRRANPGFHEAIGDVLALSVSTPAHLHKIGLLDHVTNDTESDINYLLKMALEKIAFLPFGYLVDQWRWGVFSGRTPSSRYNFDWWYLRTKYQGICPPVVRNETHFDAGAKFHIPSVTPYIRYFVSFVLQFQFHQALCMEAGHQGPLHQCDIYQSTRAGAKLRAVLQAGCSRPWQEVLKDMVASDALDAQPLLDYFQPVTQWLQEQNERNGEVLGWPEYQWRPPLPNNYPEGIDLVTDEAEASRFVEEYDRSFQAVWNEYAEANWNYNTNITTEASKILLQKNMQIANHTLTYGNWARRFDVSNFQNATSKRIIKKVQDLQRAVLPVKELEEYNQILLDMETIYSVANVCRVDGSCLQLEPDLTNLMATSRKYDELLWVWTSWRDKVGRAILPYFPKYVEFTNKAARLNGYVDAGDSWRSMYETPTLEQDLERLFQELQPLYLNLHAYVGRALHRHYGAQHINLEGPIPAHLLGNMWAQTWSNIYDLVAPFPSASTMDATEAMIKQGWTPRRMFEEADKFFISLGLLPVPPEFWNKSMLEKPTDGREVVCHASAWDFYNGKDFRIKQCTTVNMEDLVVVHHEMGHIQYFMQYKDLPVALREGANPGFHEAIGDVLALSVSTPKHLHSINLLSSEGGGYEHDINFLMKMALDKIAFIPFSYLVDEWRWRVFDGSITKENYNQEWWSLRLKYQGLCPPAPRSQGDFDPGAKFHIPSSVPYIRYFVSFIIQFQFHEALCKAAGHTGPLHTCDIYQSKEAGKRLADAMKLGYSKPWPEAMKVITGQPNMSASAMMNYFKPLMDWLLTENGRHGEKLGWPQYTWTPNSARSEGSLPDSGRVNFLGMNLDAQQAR

[6] = biological target: T2, angiotensin-I-converting enzyme (ACE); remark: listed apart in the source

Q: Which “ET-1 content in HUVECs” value ([1]; Cap 1.0 μM) does the source give for `C[C@H](CS)C(=O)N1CCC[C@H]1C(=O)O` [Cap, captopril, reference compound] here?
A: 27.32 ± 1.28 pg/mL

Q: What about the “NO level in HUVECs” value ([2]; Cap treatment) of the same molecule?
A: 53.71 ± 2.313 µM

Q: Which “ET-1 content in HUVECs” value ([1]; NE 0.5 μM) does the source give for `NC[C@H](O)c1ccc(O)c(O)c1` [NE, norepinephrine, reference compound] here?
A: 73.57 ± 3.09 pg/mL

Q: And the “NO level in HUVECs” value ([2]; NE treatment (0.5 μM))?
A: 18.59 ± 0.82 µM

Q: Which IC50 [3] does the source give for ACKEP [literature ACEi peptide] here?
A: 126 µM

Q: With FRKE [literature ACEi peptide] as the molecule, how does the “ACEi IC50” value [3] read?
A: 6970 µg/mL

Q: For IYSP [literature ACEi peptide], which “affinity with ACE (docking)” value [4] is on record?
A: -8.3 kcal/mol

Q: With KFYG [literature ACEi peptide] as the molecule, how does the IC50 [3] read?
A: 90.5 µM

Q: For LAPPSTRH [literature ACEi peptide], which “ACEi IC50” value [3] is on record?
A: 1310 µg/mL

Q: Which “affinity with ACE (docking)” value [4] does the source give for LSFR [literature ACEi peptide] here?
A: -8.5 kcal/mol

Q: Which “affinity with ACE (docking)” value [4] does the source give for LVLL [literature ACEi peptide] here?
A: -8.6 kcal/mol

Q: With MVGSAPGVL [literature ACEi peptide] as the molecule, how does the “ACEi IC50” value [3] read?
A: 3090 µg/mL

Q: Which “ACEi IC50” value [3] does the source give for NFRPQ [literature ACEi peptide] here?
A: 4280 µg/mL

Q: Which “affinity with ACE (docking)” value [4] does the source give for SHGEY [literature ACEi peptide] here?
A: -8.7 kcal/mol

Q: For SPYGF [literature ACEi peptide], which “affinity with ACE (docking)” value [4] is on record?
A: -9.7 kcal/mol

Q: With SWISS [literature ACEi peptide] as the molecule, how does the “affinity with ACE (docking)” value [4] read?
A: -8.6 kcal/mol

Q: Which “affinity with ACE (docking)” value [4] does the source give for YEGDP [literature ACEi peptide] here?
A: -8.8 kcal/mol

Q: Which “ACEi IC50” value [3] does the source give for YLRLHF [literature ACEi peptide] here?
A: 1260 µg/mL

Q: With YVVF [literature ACEi peptide] as the molecule, how does the “affinity with ACE (docking)” value [4] read?
A: -9.8 kcal/mol

Q: With WGESF [TRP3 (WGESF; Trp-Gly-Glu-Ser-Phe)] as the molecule, how does the ACEi rate (percent inhibition of ACE activity) of the RP-HPLC isolated peptide at 1.5 mg/mL [5] read?
A: 69.5%

Q: What about the ACEi activity (IC50): inhibition of ACE enzyme activity, substrate FAPGG, 37°C, product measured by HPLC at 228 nm [6] of the same molecule?
A: 930 µg/mL

Q: Which ACEi rate (percent inhibition of ACE activity) of the RP-HPLC isolated peptide at 1.5 mg/mL [5] does the source give for IKSW [TRP6 (IKSW; Ile-Lys-Ser-Trp)] here?
A: 75.4%

Q: And the ACEi activity (IC50): inhibition of ACE enzyme activity, substrate FAPGG, 37°C, product measured by HPLC at 228 nm [6]?
A: 790 µg/mL

Q: With YSHM [TRP9 (YSHM; Tyr-Ser-His-Met)] as the molecule, how does the ACEi rate (percent inhibition of ACE activity) of the RP-HPLC isolated peptide at 1.5 mg/mL [5] read?
A: 83.5%

Q: What about the ACEi activity (IC50): inhibition of ACE enzyme activity, substrate FAPGG, 37°C, product measured by HPLC at 228 nm [6] of the same molecule?
A: 490 µg/mL

Q: With WSPGF [TRP12 (WSPGF; Trp-Ser-Pro-Gly-Phe)] as the molecule, how does the ACEi rate (percent inhibition of ACE activity) of the RP-HPLC isolated peptide at 1.5 mg/mL [5] read?
A: 78.2%

Q: And the ACEi activity (IC50): inhibition of ACE enzyme activity, substrate FAPGG, 37°C, product measured by HPLC at 228 nm [6]?
A: 670 µg/mL
